# Read-outs that look alike come from different tables or passages of the source.
# What was measured:
# Type in all cases: cell-based
# [1] = target: T1, ATM kinase (Homo sapiens, UniProt Q13315); assay: Assay a): ATM cellular potency (pATM Ser1981 in irradiated HT29 cells)
# T1 construct: endogenous in cells; host or cells: HT29 cells (ECACC #85061109)
# Procedure: Most ATM molecules in the cell are rapidly phosphorylated on this site after doses of radiation as low as 0.5 Gy, and binding of a phosphospecific antibody is detectable after the introduction of only a few DNA double-strand breaks in the cell.
# The rationale of the p ATM assay is to identify inhibitors of ATM in cells. HT29 cells are incubated with test compounds for 1 hr prior to X-ray-irradiation. 1 h later the cells are fixed and stained for p ATM (Ser1981). The fluorescence is read on the arrayscan imaging platform.
# The following morning compounds of Formula (I) in 100% DMSO were added to assay plates by acoustic dispensing. After 1 h incubation at 37° C. and 5% CO2, plates (up to 6 at a time) were irradiated using the X-RAD 320 instrument (PXi) with equivalent to ˜600cGy. Plates were returned to the incubator for a further 1 h. […] Then 20 μl of 0.1% Triton X100 in PBS was added and incubated for 20 minutes at r.t., to permeabalise cells. Then the plates were washed once with […] PBS, using a Biotek EL405 plate washer.
# After 1 h incubation at r.t., the plates were washed three times with 50 μl/well PBS, using a Biotek EL405 plate washer, and plates were sealed and kept in PBS at 4° C. until read. Plates were read using an ArrayScan VTI instrument, using an XF53 filter with 10× objective.
# [2] = target: T2, ATR kinase (Homo sapiens, UniProt Q13535); assay: Assay b): ATR cellular potency (pChk1 Ser345 in HT29 cells after 4NQO)
# T2 construct: endogenous in cells; host or cells: HT29 cells (ECACC #85061109)
# Procedure: ATR is a PI 3-kinase-related kinase which phosphorylates multiple substrates on serine or threonine residues in response to DNA damage during or replication blocks. Chk1, a downstream protein kinase of ATR, plays a key role in DNA damage checkpoint control. Activation of Chk1 involves phosphorylation of Ser317 and Ser345 (the latter regarded as the preferential target for phosphorylation/activation by ATR).
# The following morning compound of Formula (I) in 100% DMSO were added to assay plates by acoustic dispensing. After 1 h incubation at 37° C. and 5% CO2, 40 nl of 3 mM 4NQO in 100% DMSO was added to all wells by acoustic dispensing, except minimum control wells which were left untreated with 4NQO to generate a null response control. Plates were returned to the incubator for a further 1 h. […] Then 20 μl of 0.1% Triton X100 in PBS was added and incubated for 10 minutes at r.t., to permeabalise cells. Then the plates were washed once with 50 μl/well PBS, using a Biotek EL405 plate washer.
# After 2 h incubation at r.t., the plates were washed three times with 50 μl/well PBS, using a Biotek EL405 plate washer, and plates were then sealed with black plate seals until read. Plates were read using an ArrayScan VTI instrument, using an XF53 filter with 10× objective.
# [3] = target: T3, mTOR (Homo sapiens, UniProt P42345); assay: Assay d): mTOR cellular potency (phospho-AKT Ser473 in MDA-MB-468 cells)
# T3 construct: phosphorylation of the Akt protein at Ser473 (AKT lies downstream of PI3Kα in the signal transduction pathway) in the MDA-MB-468 cells; endogenous in cells; host or cells: MDA-MB-468 cells (ATCC HTB 132)
# Procedure: This assay was used to measure mTOR inhibition in cells. The aim of the phospho-AKT cell based mechanism of action assay using the Acumen Explorer is to identify inhibitors of either PI3Kα or mTOR-Rictor (Rapamycin insensitive companion of mTOR). This is measured by any decrease in the phosphorylation of the Akt protein at Ser473 (AKT lies downstream of PI3Kα in the signal transduction pathway) in the MDA-MB-468 cells following treatment with compound.
# MDA-MB-468 cells (human breast adenocarcinoma #ATCC HTB 132) were seeded at 1500 cells/well in 40 μl of DMEM containing 10% FBS and 1% glutamine into Greiner 384 well black flat-bottomed plates. Cell plates were incubated for 18 h in a 37° C. incubator before dosing with compounds of Formula (I) in 100% DMSO using acoustic dispensing. Compounds were dosed in a 12 point concentration range into a randomised plate map. Control wells were generated either by dosing of 100% DMSO (max signal) or addition of a reference compound (a PI3K-βinhibitor) that completely eliminated the pAKT signal (min control). Plates were incubated at 37° C. for 2 h; cells were then fixed by the addition of 10 μl of a 3.7% formaldehyde solution. After 30 minutes the plates were washed with PBS using a Tecan PW384 plate washer. Wells were blocked and cells permeabilised with the addition of 40 μl of PBS containing 0.5% Tween20 and 1% Marvel™ (dried milk powder) and incubated for 60 minutes at r.t. The plates were washed with PBS containing 0.5% (v/v) Tween20 and 20 μl rabbit anti-phospho AKT Ser473 (Cell Signalling Technologies, #3787) in same PBS-Tween+1% Marvel™ was added and incubated overnight at 4° C.
# Plates were washed 3 times with PBS+0.05% Tween 20 using a Tecan PW384. 20 μl of secondary antibody Alexa Fluor 488 anti-Rabbit (Molecular Probes, #A11008) diluted in PBS+0.05% Tween20 containing 1% Marvel™ was added to each well and incubated for 1 h at r.t. Plates were washed three times as before then 20 μl PBS added to each well and plates sealed with a black plate sealer.
# The plates were read on an Acumen plate reader as soon as possible, measuring green fluorescence after excitation with 488 nm laser. Using this system IC50 values were generated and quality of plates was determined by control wells. Reference compounds were run each time to monitor assay performance.
# [4] = HT29 cells, X-ray irradiation, pATM Ser1981; Table 2; read-out: Assay a) ATM Cell IC50
# [5] = HT29 cells, 4NQO, pChk1 Ser345; Table 2; read-out: Assay b) ATR Cell IC50
# [6] = MDA-MB-468 cells, phospho-AKT Ser473, 2 h; Table 2; read-out: Assay d) mTOR Cell IC50
# [7] = HT29 cells, X-ray irradiation, pATM Ser1981; Table 3 comparative data; read-out: Assay a) ATM Cell IC50
# [8] = HT29 cells, 4NQO, pChk1 Ser345; Table 3 comparative data; read-out: Assay b) ATR Cell IC50
# [9] = MDA-MB-468 cells, phospho-AKT Ser473, 2 h; Table 3 comparative data; read-out: Assay d) mTOR Cell IC50
# T1 sequence (Q13315 whole entry): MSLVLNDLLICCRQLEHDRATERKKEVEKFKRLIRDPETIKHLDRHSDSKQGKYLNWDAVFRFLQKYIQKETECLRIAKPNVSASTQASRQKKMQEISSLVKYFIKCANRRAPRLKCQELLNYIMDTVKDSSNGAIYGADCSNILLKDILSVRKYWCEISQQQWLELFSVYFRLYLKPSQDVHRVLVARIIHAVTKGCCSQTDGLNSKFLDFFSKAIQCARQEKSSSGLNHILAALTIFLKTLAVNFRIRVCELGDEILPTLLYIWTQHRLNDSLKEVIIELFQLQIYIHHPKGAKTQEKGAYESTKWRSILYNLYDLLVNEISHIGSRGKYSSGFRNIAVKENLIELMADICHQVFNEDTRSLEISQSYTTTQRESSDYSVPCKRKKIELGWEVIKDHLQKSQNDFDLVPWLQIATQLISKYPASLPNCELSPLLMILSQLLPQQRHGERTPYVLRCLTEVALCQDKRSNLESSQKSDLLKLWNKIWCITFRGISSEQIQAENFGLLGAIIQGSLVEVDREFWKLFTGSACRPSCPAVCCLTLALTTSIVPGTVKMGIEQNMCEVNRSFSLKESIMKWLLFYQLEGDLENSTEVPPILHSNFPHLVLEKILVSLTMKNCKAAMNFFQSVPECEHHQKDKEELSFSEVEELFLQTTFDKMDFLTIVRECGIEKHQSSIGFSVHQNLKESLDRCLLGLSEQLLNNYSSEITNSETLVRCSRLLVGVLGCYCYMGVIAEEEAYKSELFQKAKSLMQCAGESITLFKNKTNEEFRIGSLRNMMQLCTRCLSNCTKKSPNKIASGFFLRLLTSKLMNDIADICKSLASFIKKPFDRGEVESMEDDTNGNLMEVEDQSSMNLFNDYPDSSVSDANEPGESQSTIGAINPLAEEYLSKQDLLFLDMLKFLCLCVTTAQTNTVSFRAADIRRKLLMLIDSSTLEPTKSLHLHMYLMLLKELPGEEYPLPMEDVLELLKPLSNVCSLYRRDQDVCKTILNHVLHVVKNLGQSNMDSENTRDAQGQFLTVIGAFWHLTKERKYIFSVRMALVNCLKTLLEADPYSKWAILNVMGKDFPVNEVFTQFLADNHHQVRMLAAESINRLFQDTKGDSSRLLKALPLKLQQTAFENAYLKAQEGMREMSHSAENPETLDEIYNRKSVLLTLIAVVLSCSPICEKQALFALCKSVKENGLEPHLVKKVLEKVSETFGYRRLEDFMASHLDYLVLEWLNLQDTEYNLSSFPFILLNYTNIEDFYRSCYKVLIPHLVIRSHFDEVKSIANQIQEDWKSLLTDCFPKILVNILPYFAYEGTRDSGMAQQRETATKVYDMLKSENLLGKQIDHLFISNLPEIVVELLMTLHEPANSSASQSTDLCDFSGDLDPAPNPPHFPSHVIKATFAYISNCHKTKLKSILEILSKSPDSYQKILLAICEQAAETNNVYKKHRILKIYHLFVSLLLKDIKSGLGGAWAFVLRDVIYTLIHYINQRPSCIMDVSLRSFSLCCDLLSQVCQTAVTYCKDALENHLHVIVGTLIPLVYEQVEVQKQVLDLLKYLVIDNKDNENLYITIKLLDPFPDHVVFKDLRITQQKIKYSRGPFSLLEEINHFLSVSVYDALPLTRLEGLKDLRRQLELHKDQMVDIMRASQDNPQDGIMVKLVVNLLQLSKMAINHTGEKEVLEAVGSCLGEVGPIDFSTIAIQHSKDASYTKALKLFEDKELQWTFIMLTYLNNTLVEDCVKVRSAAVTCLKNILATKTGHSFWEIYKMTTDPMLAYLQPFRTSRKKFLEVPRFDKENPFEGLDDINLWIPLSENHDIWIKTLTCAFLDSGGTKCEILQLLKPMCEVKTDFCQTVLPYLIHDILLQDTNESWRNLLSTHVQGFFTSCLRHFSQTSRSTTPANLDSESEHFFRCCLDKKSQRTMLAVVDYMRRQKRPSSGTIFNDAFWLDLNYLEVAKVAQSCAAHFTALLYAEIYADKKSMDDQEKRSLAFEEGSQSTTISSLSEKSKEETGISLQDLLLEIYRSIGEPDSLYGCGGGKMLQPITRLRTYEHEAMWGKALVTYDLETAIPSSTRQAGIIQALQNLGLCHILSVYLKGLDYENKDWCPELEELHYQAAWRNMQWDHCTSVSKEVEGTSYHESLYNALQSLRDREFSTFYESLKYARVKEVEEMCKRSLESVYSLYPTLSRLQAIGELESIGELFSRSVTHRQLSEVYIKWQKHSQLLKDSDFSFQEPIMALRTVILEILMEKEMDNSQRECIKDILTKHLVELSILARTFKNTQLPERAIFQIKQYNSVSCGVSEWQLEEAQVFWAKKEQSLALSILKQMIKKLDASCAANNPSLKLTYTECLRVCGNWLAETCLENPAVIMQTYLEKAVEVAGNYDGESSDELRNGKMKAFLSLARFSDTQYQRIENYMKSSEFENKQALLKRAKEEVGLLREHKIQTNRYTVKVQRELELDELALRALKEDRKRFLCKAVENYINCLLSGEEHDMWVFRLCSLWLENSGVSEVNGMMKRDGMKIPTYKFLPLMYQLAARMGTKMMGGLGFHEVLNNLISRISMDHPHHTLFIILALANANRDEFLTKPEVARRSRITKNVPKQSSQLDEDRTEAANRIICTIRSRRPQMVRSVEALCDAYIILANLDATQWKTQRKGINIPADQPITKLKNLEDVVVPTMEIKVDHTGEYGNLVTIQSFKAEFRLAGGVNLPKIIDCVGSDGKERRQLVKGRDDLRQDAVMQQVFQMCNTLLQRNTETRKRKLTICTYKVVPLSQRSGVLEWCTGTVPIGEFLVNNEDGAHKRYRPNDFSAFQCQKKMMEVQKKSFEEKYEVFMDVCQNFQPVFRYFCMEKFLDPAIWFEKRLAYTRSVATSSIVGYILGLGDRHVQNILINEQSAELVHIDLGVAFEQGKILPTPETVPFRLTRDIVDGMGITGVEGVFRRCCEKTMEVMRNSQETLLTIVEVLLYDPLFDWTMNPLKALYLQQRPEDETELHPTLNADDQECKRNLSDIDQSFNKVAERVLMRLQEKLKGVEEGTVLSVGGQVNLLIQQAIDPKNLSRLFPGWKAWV
SMILES,"IC50 [1, 4]","IC50 [2, 5]","IC50 [3, 6]","IC50 [1, 7]","IC50 [2, 8]","IC50 [3, 9]"
"CO[C@@H]1CCC[C@H](n2c(=O)n(C)c3cnc4ccc(-c5ccc(OCCCN(C)C)cc5)cc4c32)C1 (relative stereo) [Example 33, 8-[4-[3-(dimethylamino)propoxy]phenyl]-1-[cis-3-methoxycyclohexyl]-3-methyl-imidazo[4,5-c]quinolin-2-one]",2.3 nM,28000 nM,1230 nM,–,–,–
"CO[C@@H]1CCC[C@H](n2c(=O)n(C)c3cnc4ccc(-c5ccc(OCCCN6CCCC6)cc5)cc4c32)C1 (relative stereo) [Example 39, 1-[cis-3-methoxycyclohexyl]-3-methyl-8-[4-(3-pyrrolidin-1-ylpropoxy)phenyl]imidazo[4,5-c]quinolin-2-one]",–,–,899 nM,–,–,–
"CO[C@H]1CC[C@H](n2c(=O)n(C)c3cnc4ccc(-c5ccc(OCCCN6CCCC6)cc5)cc4c32)C1 (single isomer, unassigned) [Example 19, 1-[trans-3-methoxycyclopentyl]-3-methyl-8-[4-(3-pyrrolidin-1-ylpropoxy)phenyl]imidazo[4,5-c]quinolin-2-one]",0.29 nM,18000 nM,634 nM,–,–,–
"CO[C@@H]1CC[C@@H](n2c(=O)n(C)c3cnc4ccc(-c5ccc(OCCCN6CCCC6)cc5)cc4c32)C1 (single isomer, unassigned) [Example 20, 1-[trans-3-methoxycyclopentyl]-3-methyl-8-[4-(3-pyrrolidin-1-ylpropoxy)phenyl]imidazo[4,5-c]quinolin-2-one]",0.452 nM,21300 nM,5500 nM,–,–,–
"CO[C@H]1CC[C@H](n2c(=O)n(C)c3cnc4cc(F)c(-c5ccc(OCCCN6CCC6)cc5)cc4c32)C1 (single isomer, unassigned) [Example 23, 8-[4-[3-(azetidin-1-yl)propoxy]phenyl]-7-fluoro-1-[trans-3-methoxycyclopentyl]-3-methyl-imidazo[4,5-c]quinolin-2-one]",1.42 nM,> 30000 nM,5680 nM,–,–,–
"CO[C@@H]1CC[C@@H](n2c(=O)n(C)c3cnc4cc(F)c(-c5ccc(OCCCN6CCC6)cc5)cc4c32)C1 (single isomer, unassigned) [Example 24, 8-[4-[3-(azetidin-1-yl)propoxy]phenyl]-7-fluoro-1-[trans-3-methoxycyclopentyl]-3-methyl-imidazo[4,5-c]quinolin-2-one]",0.917 nM,> 24600 nM,5910 nM,–,–,–
"CO[C@H]1CCC[C@H](n2c(=O)n(C)c3cnc4ccc(-c5ccc(OCCCN6CCCC6)cc5)cc4c32)C1 (single isomer, unassigned) [Example 30, 1-[trans-3-methoxycyclohexyl]-3-methyl-8-[4-(3-pyrrolidin-1-ylpropoxy)phenyl]imidazo[4,5-c]quinolin-2-one]",1.62 nM,15500 nM,1700 nM,–,–,–
"CO[C@@H]1CC[C@H](n2c(=O)n(C)c3cnc4ccc(-c5ccc(OCCCN(C)C)cc5)cc4c32)C1 (single isomer, unassigned) [Example 34, 8-[4-[3-(dimethylamino)propoxy]phenyl]-1-[cis-3-methoxycyclopentyl]-3-methyl-imidazo[4,5-c]quinolin-2-one]",–,–,4660 nM,–,–,–
"CO[C@@H]1CC[C@H](n2c(=O)n(C)c3cnc4cc(F)c(-c5ccc(OCCCN(C)C)cc5)cc4c32)C1 (single isomer, unassigned) [Example 37, 8-[4-[3-(dimethylamino)propoxy]phenyl]-7-fluoro-1-[cis-3-methoxycyclopentyl]-3-methyl-imidazo[4,5-c]quinolin-2-one]",2.95 nM,> 30000 nM,4110 nM,–,–,–
"COC(=O)N1CCC(n2c(=O)n(C)c3cnc4ccc(-c5ccc(OC)nc5)cc4c32)CC1 [CN102372711A Compound 4, reference compound]",–,–,–,11.2 nM,68.6 nM,72.9 nM
"Cn1c(=O)n(C2CCOCC2)c2c3cc(-c4cnn(CCCO)c4)ccc3ncc21 [CN102399218A Compound 60, reference compound]",–,–,–,1760 nM,> 77.1 nM,2310 nM
"CC(C)n1c(=O)n(C)c2cnc3cc(F)c(-c4ccc(OCCCN5CCC5)cc4)cc3c21 [Example 4, 8-[4-[3-(azetidin-1-yl)propoxy]phenyl]-7-fluoro-1-isopropyl-3-methyl-imidazo[4,5-c]quinolin-2-one]",6.64 nM,> 30000 nM,9120 nM,–,–,–
"CO[C@H]1CC[C@H](n2c(=O)n(C)c3cnc4ccc(-c5ccc(OCCCN(C)C)cc5)cc4c32)C1 [Example 6, 8-[4-[3-(Dimethylamino)propoxy]phenyl]-1-[(1S,3S)-3-methoxycyclopentyl]-3-methyl-imidazo[4,5-c]quinolin-2-one]",–,–,781 nM,–,–,–
"CO[C@H]1C[C@@H](n2c(=O)n(C)c3cnc4ccc(-c5ccc(OCCCN(C)C)cc5)cc4c32)C1 [Example 11, 8-[4-[3-(dimethylamino)propoxy]phenyl]-1-(cis-3-methoxycyclobutyl)-3-methyl-imidazo[4,5-c]quinolin-2-one]",0.647 nM,> 30000 nM,6360 nM,–,–,–
"Cn1c(=O)n([C@H]2CCCOC2)c2c3cc(-c4ccc(OCCCN5CCCC5)cc4)ccc3ncc21 [Example 15, 3-methyl-8-[4-(3-pyrrolidin-1-ylpropoxy)phenyl]-1-[(3S)-tetrahydropyran-3-yl]imidazo[4,5-c]quinolin-2-one]",0.911 nM,21600 nM,2580 nM,–,–,–
"Cn1c(=O)n(C2CCOCC2)c2c3cc(-c4ccc(OCCCN5CCCCC5)cc4)ccc3ncc21 [Example 18, 3-methyl-8-[4-[3-(1-piperidyl)propoxy]phenyl]-1-tetrahydropyran-4-yl-imidazo[4,5-c]quinolin-2-one]",–,> 17800 nM,2650 nM,–,–,–
"CO[C@H]1C[C@H](n2c(=O)n(C)c3cnc4ccc(-c5ccc(OCCCN(C)C)cc5)cc4c32)C1 [Example 21, 8-[4-[3-(dimethylamino)propoxy]phenyl]-1-(trans-3-methoxycyclobutyl)-3-methyl-imidazo[4,5-c]quinolin-2-one]",0.533 nM,> 30000 nM,5070 nM,–,–,–

# Reference: patent publication US20180318287A1, “Imidazo[4,5-c]quinolin-2-one Compounds and Their Use in Treating Cancer” (ASTRAZENECA AB, priority 2015, published 2018)
